Experimental data reported in ChEMBL document CHEMBL1201862, “PubChem BioAssay data set” (2004).
Active and inactive are the calls of the source.

What was measured:
Protein skinhead-1 = biological target: T1, Protein skinhead-1 (Caenorhabditis elegans, UniProt P34707); format: functional
T1 sequence (P34707 whole entry): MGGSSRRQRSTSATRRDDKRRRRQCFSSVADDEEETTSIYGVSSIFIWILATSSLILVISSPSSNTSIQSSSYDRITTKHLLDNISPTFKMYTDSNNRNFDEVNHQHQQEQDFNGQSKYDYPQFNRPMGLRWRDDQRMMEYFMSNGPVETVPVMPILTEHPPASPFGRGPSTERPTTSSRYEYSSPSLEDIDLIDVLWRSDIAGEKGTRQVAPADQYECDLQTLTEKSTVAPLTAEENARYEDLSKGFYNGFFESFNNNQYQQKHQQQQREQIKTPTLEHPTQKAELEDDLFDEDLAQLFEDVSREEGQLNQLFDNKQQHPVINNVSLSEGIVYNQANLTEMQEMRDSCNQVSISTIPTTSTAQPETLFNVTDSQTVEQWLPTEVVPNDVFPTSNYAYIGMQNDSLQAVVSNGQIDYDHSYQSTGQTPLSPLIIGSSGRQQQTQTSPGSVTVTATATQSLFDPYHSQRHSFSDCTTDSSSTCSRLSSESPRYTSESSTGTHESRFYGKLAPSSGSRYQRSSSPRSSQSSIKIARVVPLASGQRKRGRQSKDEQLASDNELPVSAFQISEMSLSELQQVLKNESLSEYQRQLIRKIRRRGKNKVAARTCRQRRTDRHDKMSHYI

[1] = loss of viability in HepG2 cells – cell-based, CellTiter-Glo, cherry-picked, cytotoxicity control for Shn3 inhibitor project, dose response (AID 624134); format: functional
[2] = non-specific 3'UTR reporter inhibition in Clone20-Shn3RL – cell-based, Renilla luciferase, cherry-picked, counter-screen for Shn3 inhibitor project, dose response (AID 624133); format: functional
[3] = reduction of Shn3 3'UTR-driven luciferase in osteoblasts – cell-based, Clone20 osteoblasts, firefly luciferase, cherry-picked, dose response (AID 624132); format: functional;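 note: firefly luciferase luminescence from reporter carrying the Shn3 3'UTR in osteoblasts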
[4] = Trypanosoma cruzi growth suppression in host cells – NIH3T3 host cells, beta-gal luminescence, confirmation (AID 2044); format: functional, cell-based;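 note: intracellular parasites grown in NIH/3T3 mouse fibroblasts as host cells; luminescent beta-galactosidase reporter signal from transgenic T. cruzi replicating inside host cells; inhibitors lower the luminescence signal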
[5] = NIH3T3 cell viability loss – ATP luminescence, mouse fibroblasts, counter-screen, dose response (AID 2010); format: functional, cell-based;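 note: cells exposed to compound for about 90 hours before reading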
[6] = biological target: T2, Polyadenylate-binding protein 1 (Homo sapiens, UniProt P11940); assay: MLLE binding blockers, Cy5 peptide tracer – biochemical, fluorescence polarization, Cy5-PAM2 peptide, secondary, miRNA deadenylation inhibitor project, dose response (AID 602260); format: functional; settings: read-out: IC50_Mean
[7] = biological target: T2, Polyadenylate-binding protein 1; assay: MLLE domain peptide-binding blockers, IC50 – biochemical, fluorescence polarization, FITC-PAM2 peptide, dose response (AID 602259); format: functional; settings: read-out: IC50_Mean
[8] = biological target: T3, Corticotropin-releasing factor receptor 2/Corticotropin-releasing factor-binding protein (Homo sapiens, UniProt P24387+Q13324); assay: Dose Response confirmation of uHTS hits for small molecule antagonists of the CRF-binding protein and CRF-R2 receptor complex.; format: functional; settings: read-out: IC50_Mean
T3 sequence (Q13324 whole entry): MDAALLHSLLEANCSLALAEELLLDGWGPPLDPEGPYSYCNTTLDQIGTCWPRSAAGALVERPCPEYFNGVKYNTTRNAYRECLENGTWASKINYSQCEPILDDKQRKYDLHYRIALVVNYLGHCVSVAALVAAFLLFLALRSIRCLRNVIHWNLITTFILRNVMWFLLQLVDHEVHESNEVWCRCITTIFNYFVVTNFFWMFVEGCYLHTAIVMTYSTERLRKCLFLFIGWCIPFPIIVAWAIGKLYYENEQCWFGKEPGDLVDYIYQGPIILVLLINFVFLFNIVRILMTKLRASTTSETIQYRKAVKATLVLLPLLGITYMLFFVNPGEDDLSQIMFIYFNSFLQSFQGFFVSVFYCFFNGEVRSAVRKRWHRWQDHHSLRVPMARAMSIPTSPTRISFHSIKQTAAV
T3 sequence (P24387 whole entry): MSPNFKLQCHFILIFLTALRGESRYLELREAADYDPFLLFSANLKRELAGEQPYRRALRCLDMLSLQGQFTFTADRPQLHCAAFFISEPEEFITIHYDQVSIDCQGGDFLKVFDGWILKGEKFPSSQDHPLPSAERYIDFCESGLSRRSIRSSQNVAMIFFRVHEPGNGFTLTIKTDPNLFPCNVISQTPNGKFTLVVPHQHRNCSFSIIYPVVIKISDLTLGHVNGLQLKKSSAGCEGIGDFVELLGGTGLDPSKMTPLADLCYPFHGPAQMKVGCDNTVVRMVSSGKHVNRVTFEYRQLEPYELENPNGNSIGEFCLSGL

[9] = biological target: T3, Corticotropin-releasing factor receptor 2/Corticotropin-releasing factor-binding protein; assay: activators of CRF receptor 2 with binding protein – uHTS hits, confirmation (AID 602473); format: functional; settings: read-out: EC50_Mean
[10] = blockers of HIV-1 envelope-mediated cell-cell fusion – cherry-pick, dose response (AID 652057); format: functional, cell-based
Paired box protein Pax-8 = Paired box protein Pax-8 (Homo sapiens, UniProt Q06710); assay: PAX8 transcriptional activity inhibition in RMG-I – RMG-I cells, luciferase, cherry-pick, dose response (AID 687027); format: functional, cell-based;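 note: luciferase reporter driven by Pax8 target thyroperoxidase promoter measured by SteadyGlo luminescence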
[11] = biological target: T4, High affinity choline transporter 1 (Homo sapiens, UniProt Q9GZV3); assay: human choline transporter blockers, potency – cell-based, 5-point CRC, membrane potential dye, dose response (AID 504840); format: functional
T4 sequence (Q9GZV3 whole entry): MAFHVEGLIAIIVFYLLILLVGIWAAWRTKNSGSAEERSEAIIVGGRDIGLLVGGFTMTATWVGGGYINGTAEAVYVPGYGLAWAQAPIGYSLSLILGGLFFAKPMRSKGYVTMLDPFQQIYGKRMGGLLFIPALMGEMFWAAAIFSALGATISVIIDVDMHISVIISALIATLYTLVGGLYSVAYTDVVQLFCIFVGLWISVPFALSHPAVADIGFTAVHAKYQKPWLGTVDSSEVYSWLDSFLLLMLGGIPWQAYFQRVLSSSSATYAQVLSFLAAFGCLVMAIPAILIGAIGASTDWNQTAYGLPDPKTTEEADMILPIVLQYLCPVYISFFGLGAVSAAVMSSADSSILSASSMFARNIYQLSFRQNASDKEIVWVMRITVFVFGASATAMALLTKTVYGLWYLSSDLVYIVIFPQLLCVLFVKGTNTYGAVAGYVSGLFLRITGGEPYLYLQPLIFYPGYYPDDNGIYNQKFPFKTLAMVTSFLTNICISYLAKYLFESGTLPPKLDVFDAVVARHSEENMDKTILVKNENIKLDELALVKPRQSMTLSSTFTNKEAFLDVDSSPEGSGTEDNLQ

[12] = viability of uninfected HEp-2 cells – cell-based, HTS, cytotoxicity control for RSV inhibitor project, dose response (AID 2410); format: functional; settings: human respiratory syncytial virus
[13] = biological target: T5, Heat shock factor protein 1 (Mus musculus, UniProt P38532); assay: enhancement of HSF1-driven luciferase signal – cell-based, NIH3T3, luminescence, dose retest, confirmation (AID 435004); format: functional;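 note: stress induced by proteasome inhibitor MG132 added 30 min after compound; luciferase reporter driven by HSF1 response element in NIH3T3 cells; actives raise luminescence as potentiators of the MG132 stress response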
T5 sequence (P38532 whole entry): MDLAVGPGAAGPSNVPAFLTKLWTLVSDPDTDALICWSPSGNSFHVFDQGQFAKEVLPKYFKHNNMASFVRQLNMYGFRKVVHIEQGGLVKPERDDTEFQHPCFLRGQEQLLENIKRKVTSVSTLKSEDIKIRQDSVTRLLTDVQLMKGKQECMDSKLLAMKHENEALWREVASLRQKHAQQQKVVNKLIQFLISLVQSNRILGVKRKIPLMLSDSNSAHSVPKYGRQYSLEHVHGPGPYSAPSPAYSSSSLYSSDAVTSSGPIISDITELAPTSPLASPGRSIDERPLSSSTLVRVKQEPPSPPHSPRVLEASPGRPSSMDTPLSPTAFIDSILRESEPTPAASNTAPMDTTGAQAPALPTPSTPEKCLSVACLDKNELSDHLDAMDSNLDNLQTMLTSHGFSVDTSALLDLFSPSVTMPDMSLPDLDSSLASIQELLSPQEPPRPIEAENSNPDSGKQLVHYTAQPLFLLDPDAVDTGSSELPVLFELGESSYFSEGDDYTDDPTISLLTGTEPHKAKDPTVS

T2 sequence (P11940 whole entry, the tested form may be a part): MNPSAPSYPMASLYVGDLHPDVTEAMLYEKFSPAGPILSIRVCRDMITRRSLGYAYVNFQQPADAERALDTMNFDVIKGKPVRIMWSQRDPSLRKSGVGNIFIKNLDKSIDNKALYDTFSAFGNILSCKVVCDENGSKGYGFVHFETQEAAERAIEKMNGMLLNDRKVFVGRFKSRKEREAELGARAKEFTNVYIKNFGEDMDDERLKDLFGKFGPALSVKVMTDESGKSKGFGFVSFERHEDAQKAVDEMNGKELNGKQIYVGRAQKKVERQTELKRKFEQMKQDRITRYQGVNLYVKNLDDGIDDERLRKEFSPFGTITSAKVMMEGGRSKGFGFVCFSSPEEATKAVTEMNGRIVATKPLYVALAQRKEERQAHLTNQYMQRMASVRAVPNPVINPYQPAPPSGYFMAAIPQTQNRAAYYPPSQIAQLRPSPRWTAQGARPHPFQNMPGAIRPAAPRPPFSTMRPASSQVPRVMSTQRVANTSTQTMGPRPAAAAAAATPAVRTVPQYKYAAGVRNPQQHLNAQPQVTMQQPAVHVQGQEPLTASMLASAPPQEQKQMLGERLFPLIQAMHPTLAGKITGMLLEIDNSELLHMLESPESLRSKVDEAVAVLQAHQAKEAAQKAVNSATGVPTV
Paired box protein Pax-8, sequence (Q06710 whole entry): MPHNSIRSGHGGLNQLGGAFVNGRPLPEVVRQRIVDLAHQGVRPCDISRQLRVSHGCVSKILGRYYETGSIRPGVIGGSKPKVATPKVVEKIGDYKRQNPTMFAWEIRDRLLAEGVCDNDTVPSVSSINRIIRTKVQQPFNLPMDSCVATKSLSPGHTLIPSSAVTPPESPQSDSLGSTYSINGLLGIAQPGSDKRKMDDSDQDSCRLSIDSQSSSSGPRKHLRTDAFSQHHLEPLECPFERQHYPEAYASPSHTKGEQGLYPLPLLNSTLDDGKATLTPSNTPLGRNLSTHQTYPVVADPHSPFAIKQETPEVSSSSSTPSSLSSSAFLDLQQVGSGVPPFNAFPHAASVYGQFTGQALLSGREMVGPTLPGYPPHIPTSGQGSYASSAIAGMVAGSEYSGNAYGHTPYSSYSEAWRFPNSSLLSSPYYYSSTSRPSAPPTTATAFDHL

COc1ccccc1C1C(C(=O)NCc2ccccc2)=C(C)Nc2ncnn21 (centres undefined)
IC50 (Protein skinhead-1): > 100 µM (inactive)

FC(F)(F)c1cnc2c(-c3ccc(Cl)cc3Cl)noc2c1
IC50 (Protein skinhead-1): > 100 µM (inactive)

COc1ccc(N2CCN(C(=O)CN3CCN(c4nc(-c5ccc(F)cc5)cs4)CC3)CC2)cc1
AC50 [1]: 58 µM (active) | AC50 [2]: 1.16 µM (active) | AC50 [3]: 1.81 µM (active)

CC1=C(C(=O)c2ccccc2)C(c2cn(-c3ccccc3)nc2-c2ccc(Cl)cc2)NC(S)=N1 (centres undefined)
EC50 [4]: 2.33 µM (active) | IC50 (Protein skinhead-1): > 100 µM (inactive) | EC50 [5]: > 30 µM (not active)

O=C(NC(=S)Nc1ccccc1O)c1ccccc1Cl
IC50 [6]: > 66 µM (inactive) | IC50 [7]: > 66 µM (inactive)

OC1(c2ccc(Br)cc2)C[N+](c2ccccc2)=C2SCCN21 (centres undefined)
IC50 [6]: > 66 µM (inactive) | IC50 [7]: > 66 µM (inactive)

Cc1ccc(C(=O)N2c3ccccc3N(Cc3ccccc3)C(=O)C2(C)C)cc1
AC50 [1]: > 70 µM (inactive) | AC50 [2]: 4.11 µM (active) | IC50 [8]: 5.66 µM (active) | AC50 [3]: 6.92 µM (active) | EC50 [9]: > 53 µM (inactive)

Nc1n[nH]c(Sc2c([N+](=O)[O-])cc(C(F)(F)F)cc2[N+](=O)[O-])n1
IC50 [6]: > 66 µM (inactive) | IC50 [7]: > 66 µM (inactive)

C[C@@H]1CN([C@H](C)CO)C(=O)c2cc(NS(=O)(=O)c3ccc(F)cc3)ccc2O[C@H]1CN(C)Cc1ccc(C(F)(F)F)cc1
AC50 [10]: 33.9 µM (active)

COc1ccc(NC(=S)N/N=C2\CC(C)(C)Oc3ccc(OC)cc32)cc1
IC50 [6]: > 66 µM (inactive) | IC50 [7]: > 66 µM (inactive)

CCCCN(c1nc2ccccc2nc1Cl)S(=O)(=O)c1ccc(C)cc1
AC50 [1]: > 70 µM (inactive) | AC50 [2]: 30.7 µM (active) | AC50 [3]: 7.22 µM (active)

CN(c1cccc(NC(=O)CN(c2ccc(C34CC5CC(CC(C5)C3)C4)cc2)S(C)(=O)=O)c1)S(C)(=O)=O
AC50 [1]: 31.2 µM (active) | EC50 [4]: 1.6 µM (active) | AC50 [2]: 7.86 µM (active) | EC50 [5]: 7.81 µM (active) | AC50 [3]: 7.58 µM (active)

C[C@@H]1CCCCO[C@H](CN(C)S(=O)(=O)c2ccc(Cl)cc2)[C@@H](C)CN([C@@H](C)CO)C(=O)c2cc(NC(=O)Nc3ccc(C(F)(F)F)cc3)ccc2O1
AC50 (Paired box protein Pax-8): 2.87 µM (active)

C[C@H](CO)N1C[C@H](C)[C@@H](CN(C)Cc2ccc(C(F)(F)F)cc2)Oc2ccc(NS(=O)(=O)c3ccc(F)cc3)cc2CC1=O
AC50 (Paired box protein Pax-8): 11.9 µM (active)

CC(=O)c1cccc(NC(=O)N2CCCC2C(=O)Nc2c(C)cccc2C)c1 (centres undefined)
IC50 (Protein skinhead-1): > 100 µM (inactive)

NC(=O)COC(=O)c1ccc(Cl)c(S(=O)(=O)N2CCN(c3ccc(F)cc3)CC2)c1
IC50 [11]: 13.8 µM (active)

Clc1ccc(OCCSc2ncccn2)cc1
IC50 (Protein skinhead-1): 43.9 µM (active)

CCOC(=O)c1c(-c2ccccc2)csc1NC(=O)C1CCCO1 (centres undefined)
IC50 [6]: > 66 µM (inactive) | IC50 [7]: > 66 µM (inactive)

Cc1nn2cc(-c3ccc(Cl)cc3)nc2s1
IC50 (Protein skinhead-1): 15.6 µM (active)

COc1ccc(C2=NS(=O)(=O)N(C)C(C(=O)N3CCc4ccccc4C3)=C2)cc1OC
AC50 [1]: 69.3 µM (active) | AC50 [2]: 4.43 µM (active) | AC50 [3]: 4.99 µM (active)

CC1CCCCC1NC(=O)c1cccc(N2C(=O)C3C4C=CC(C4)C3C2=O)c1 (centres undefined)
IC50 [11]: 14.5 µM (active)

CC(c1ccccc1)N1CCc2[nH]c(=S)[nH]c(=O)c2C1 (centres undefined)
IC50 [6]: > 66 µM (inactive) | IC50 [7]: > 66 µM (inactive)

Cc1ccc(S(=O)(=O)Nc2ccc3ncccc3c2)cc1
AC50 [1]: 45.9 µM (active) | AC50 [2]: 29.3 µM (active) | AC50 [3]: 2.2 µM (active)

CC1CCN(Cc2ccc(-c3nnn(CC(=O)Nc4ccccc4Cl)n3)cc2)CC1
AC50 [1]: > 70 µM (inactive) | AC50 [2]: 3.25 µM (active) | AC50 [3]: 1.77 µM (active)

Cc1cccc(NC2SC(=O)NC2=O)c1 (centres undefined)
IC50 [6]: > 66 µM (inactive) | IC50 [7]: > 66 µM (inactive)

COc1cc2sc3ccc(C#Cc4ccc(N)cc4)cc3c(=O)c2cc1OC
IC50 (Protein skinhead-1): > 100 µM (inactive)

CC(C)(C)c1nnc(N=C(S)Nc2ccccc2)s1
IC50 [6]: > 66 µM (inactive) | IC50 [7]: > 66 µM (inactive)

O=C(O)c1cnn(-c2nc(-c3cccc([N+](=O)[O-])c3)cs2)c1C(F)(F)F
IC50 [11]: 11 µM (active) | CC50 [12]: 37.9 µM (active) | EC50 [13]: > 260 µM (inactive)

c1ccc2c(c1)OCCc1c-2[nH]c2ccccc12
IC50 (Protein skinhead-1): > 100 µM (inactive)
